US5011849A, “Compounds for treating and preventing cognitive diseases and depression and methods of making same” (Hoffmann-La Roche Inc., priority 1988, dated 1991)

Assays:
[1] = biological target: T1, MAO (substrate 5-HT) (Rattus norvegicus, UniProt P21396); assay: in vitro MAO inhibition in rat brain homogenate, substrate 14C-serotonin (5-HT); format: biochemical; settings: substrate 14C-serotonin (5-HT) 2.10^-4 Mol/l, pH 7.4, 37° C., preincubation 30 minutes, incubation 10 minutes, read-out: IC 50, 5-HT
T1 construct: 20 μl of rat brain homogenate; from tissue; host or cells: rat brain homogenate
T1 sequence (P21396 1-526): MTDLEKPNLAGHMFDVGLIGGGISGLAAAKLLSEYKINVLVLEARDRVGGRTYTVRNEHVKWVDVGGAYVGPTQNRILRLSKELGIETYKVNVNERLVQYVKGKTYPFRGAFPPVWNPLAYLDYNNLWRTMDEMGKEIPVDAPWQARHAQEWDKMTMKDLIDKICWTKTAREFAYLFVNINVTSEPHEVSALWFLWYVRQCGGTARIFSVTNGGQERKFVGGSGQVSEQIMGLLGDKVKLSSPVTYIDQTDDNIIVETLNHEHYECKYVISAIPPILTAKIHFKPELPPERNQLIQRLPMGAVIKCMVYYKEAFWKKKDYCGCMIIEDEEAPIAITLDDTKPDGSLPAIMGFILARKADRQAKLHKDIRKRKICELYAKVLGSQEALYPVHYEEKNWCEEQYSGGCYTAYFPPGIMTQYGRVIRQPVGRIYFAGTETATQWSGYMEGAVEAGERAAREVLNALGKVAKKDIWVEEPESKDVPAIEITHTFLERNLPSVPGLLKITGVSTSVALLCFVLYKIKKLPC
Procedure: (§1) The MAO inhibiting activity of the compounds in accordance with the invention can be determined using standard methods. Thus, the preparations to be tested were subjected to the in vitro test described hereinafter, which followed the method published by R. J. Wurtmann and J. A. Axelrod [Biochem. Pharmac. 12, 1439-1441 (1963)].
(§2) Isolated rat brains are homogenized in the ratio 1:4 (weight/volume) in 0.1 molar potassium phosphate buffer (pH 7.4). whereupon the homogenates are diluted in the ratio 1:4 (volume/volume) with the same buffer and stored at -20°. A mixture of the following composition is used for the incubation:
(§3) 100 μl of 1M phosphate buffer (pH 7.4);
(§4) 100 μl solubilizate of the substance to be tested in water or dimethyl sulfoxide;
(§5) 20 μl of rat brain homogenate; and as the substrate
(§6) 80 μl of ^14 C-serotonin (5-HT) or ^14 C-phenylethylamine (PEA), in each case 100,000 decays per minute, corresponding to a final concentration of 2.10^-4 Mol/l and, respectively, 2.10^-5 Mol/l.
(§7) Prior to the addition of the substrate a preincubation at 37° C. was effected for 30 minutes. The incubation (in the presence of the substrate) was also effected at 37° C. and lasted 10 minutes.
(§8) The reaction is stopped by the addition of 200 μl of 2N hydrochloric acid.
(§9) The deaminated product, depending on the use of 5-HT or of PEA as the substrate, is extracted by shaking for 10 minutes with 5 ml of diethyl ether or with 5 ml of n-heptane, whereupon the mixture is centrifuged, the aqueous phase is frozen in a dry-ice bath and the organic phase is poured into a counting glass.
(§10) The activity of the MAO in comparison to control homogenates (without substance to be tested) is determined on the basis of the β-counter value and the IC 50 is defined as that concentration of a substance to be tested which decreases the activity of the MAO in the substrate 5-HT or PEA to 50%.

[2] = biological target: T2, MAO (substrate PEA) (Rattus norvegicus, UniProt P19643); assay: in vitro MAO inhibition in rat brain homogenate, substrate 14C-phenylethylamine (PEA); format: biochemical; settings: substrate 14C-phenylethylamine (PEA) 2.10^-5 Mol/l, pH 7.4, 37° C., preincubation 30 minutes, incubation 10 minutes
T2 construct: 20 μl of rat brain homogenate; from tissue; host or cells: rat brain homogenate
T2 sequence (P19643 1-520): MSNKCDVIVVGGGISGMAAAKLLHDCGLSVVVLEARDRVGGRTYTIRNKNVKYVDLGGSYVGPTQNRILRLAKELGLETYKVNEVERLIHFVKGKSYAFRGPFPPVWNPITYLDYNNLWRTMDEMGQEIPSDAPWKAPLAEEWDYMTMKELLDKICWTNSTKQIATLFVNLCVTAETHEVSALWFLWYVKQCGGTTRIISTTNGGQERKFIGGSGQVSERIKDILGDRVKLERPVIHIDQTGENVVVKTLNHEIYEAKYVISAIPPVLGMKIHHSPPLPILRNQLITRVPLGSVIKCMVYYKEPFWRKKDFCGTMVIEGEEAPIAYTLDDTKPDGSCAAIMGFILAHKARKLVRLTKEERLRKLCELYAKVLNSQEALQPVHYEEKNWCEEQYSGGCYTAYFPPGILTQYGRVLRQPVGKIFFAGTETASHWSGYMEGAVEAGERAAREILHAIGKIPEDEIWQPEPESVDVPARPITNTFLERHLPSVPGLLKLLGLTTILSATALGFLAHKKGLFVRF
Procedure: as §1, §2, §3, §4, §5, §6, §7, §8, §9, §10

| SMILES | IC50 [1] [nM] | IC50 [2] [nM] |
| --- | --- | --- |
| NCCNC(=O)c1ncsc1-c1ccccc1F [5-(2-fluorophenyl)-4-thiazol, N-(2-aminoethyl)-5-(2-fluorophenyl)-4-thiazolecarboxamide] | 40 | > 10000 |
| NCCNC(=O)c1ncsc1-c1ccc(F)cc1 [5-(4-fluorophenyl)-4-thiazol, N-(2-aminoethyl)-5-(4-fluorophenyl)-4-thiazolecarboxamide] | 60 | 100000 |
| NCCNC(=O)c1ncsc1-c1cc(Cl)cc(Cl)c1 [5-(3,5-dichlorophenyl)-4-thiazol, N-(2-aminoethyl)-5-(3,5-dichlorophenyl)-4-thiazolecarboxamide] | 7 | 300 |
| NCCNC(=O)c1ncsc1-c1cccc(F)c1 [5-(3-fluorophenyl)-4-thiazol, N-(2-aminoethyl)-5-(3-fluorophenyl)-4-thiazolecarboxamide] | 20 | > 10000 |
| NCCNC(=O)c1ncoc1-c1ccco1 [5-(2-furyl)-4-oxazol, N-(2-aminoethyl)-5-(2-furyl)-4-oxazolecarboxamide] | 22 | 2000 |
| NCCNC(=O)c1ncsc1-c1ccc(F)cc1F [5-(2,4-difluorophenyl)-4-thiazol, N-(2-aminoethyl)-5-(2,4-difluorophenyl)-4-thiazolecarboxamide] | 120 | 3600 |
| NCCNC(=O)c1ncoc1-c1ccc(Cl)cc1 [5-(4-chlorophenyl)-4-oxazol, N-(2-aminoethyl)-5-(4-chlorophenyl)-4-oxazolecarboxamide] | < 10 | > 100000 |
| NCCNC(=O)c1ncsc1-c1ccccc1 [5-phenyl-4-thiazol, N-(2-aminoethyl)-5-phenyl-4-thiazolecarboxamide] | 20 | 20000 |
